Results as given in patent US20030013638A1, “P27 prevents cellular migration” (priority 2001, published 2003).
Blank lines part the entries; values can stand above or below the compound they belong to.

How the values were obtained:
wild type murine SMC = experiment: SMC migration assay, modified Boyden chamber, bFGF-induced; type: cell-based, mouse
Method: (§1) Cell Culture: The murine aortic SMCs were obtained from the explant migration experiments described below, and were subcultured in DMEM containing 20% fetal bovine serum (FBS) at 37° C. in a humidified 95% air-5% CO2 atmosphere (Kobayashi et al., 1993). The growth medium was changed every other day until 80% confluence was reached. The cells used for experiments were from passages #3-6. Verification of SMC phenotype was determined by positive fluorescent staining for α-actin and negative staining for Factor VIII antigen. Cell viability was 95% or greater as determined by trypan blue exclusion at the conclusion of each experiment.
SMC migration assay: Migration was measured using a 48 well modified Boyden chamber housing a polycarbonate filter with 8 μm pores as described previously (Bornfeldt et al., 1994; Poon et al., 1996). Each membrane was coated with 0.1 mg/ml of collagen in 0.2 M acetic acid for 24 hours before each assay. For each assay, 50 ng/ml of bFGF in DMEM was loaded in quadruplicate wells in the bottom chamber. BSA (0.2% in DMEM without bFGF) was used as a negative control. […] An equal number of cells (2×10^5/ml) in 50 μl was loaded to the top chamber of each well. After 6 hours, non-migrating cells were scraped from the upper surface of the filter. Cells on the lower surface were fixed with methanol and stained with Giemsa stain (Fisher Scientific, N.Y.) . The number of SMC on the lower surface of the filter was determined by counting four high power (X200) fields of constant area per well. Values are expressed as the percentage of cells migrating in response to bFGF after subtraction of the negative control (DMEM+BSA). Experiments were performed at least twice using quadruplicate wells.

p27 (−/−) SMC = experiment: as above; type: cell-based, mouse
Method: as §1
SMC migration assay: Migration was measured using a 48 well modified Boyden chamber housing a polycarbonate filter with 8 μm pores as described previously (Bornfeldt et al., 1994; Poon et al., 1996). Each membrane was coated with 0.1 mg/ml of collagen in 0.2 M acetic acid for 24 hours before each assay. For each assay, 50 ng/ml of bFGF in DMEM was loaded in quadruplicate wells in the bottom chamber. BSA (0.2% in DMEM without bFGF) was used as a negative control. Rapamycin, FK506 or C3 exoenzyme was directly added to the growth medium for either 48 hours (rapamycin and FK506) or 16 hours (C3 exoenzyme) before the cells were trypsinized, and counted with a hemacytometer. An equal number of cells (2×10^5/ml) in 50 μl was loaded to the top chamber of each well. After 6 hours, non-migrating cells were scraped from the upper surface of the filter. Cells on the lower surface were fixed with methanol and stained with Giemsa stain (Fisher Scientific, N.Y.) . The number of SMC on the lower surface of the filter was determined by counting four high power (X200) fields of constant area per well. Values are expressed as the percentage of cells migrating in response to bFGF after subtraction of the negative control (DMEM+BSA). Experiments were performed at least twice using quadruplicate wells.

[1] = tested on: aortic SMC of p27 (+/−) mice; experiment: Aortic SMC explant migration after in vivo treatment; parameters: species or system mouse; conditions: 4 mg/kg/day for 5 days IP, p<0.05
Method: Aortic SMC explant migration: Wild type C57BL/6 mice were purchased from Jackson Laboratory (Bar Harbor, Me.). The p27 (+/−) and p27 (−/−) knockout mice were kindly provided by Dr. Andrew Koff of Memorial Sloan-Kettering Cancer Institute (Kiyokawa et al., 1996). The mice received one of three different treatment protocols (9 mg/kg/day for 7 days, 4 mg/kg/day for 5 days, or 2 mg/kg/day for 2 days) of rapamycin via intraperitoneal (IP) injection. The control group was treated with vehicle alone (0.2% sodium CMC, polysorbate 0.25%; Sigma, St. Louis, Mo.). At the conclusion of the treatment protocol, the mice were euthanized with 100 mg/kg of pentobarbital, the aortas excised and the adventitia and surrounding connective tissue were removed. The aortas were then opened by a longitudinal cut and the intima, as well as a thin portion of the subjacent media, were removed. The media were divided into 2 mm×2 mm pieces and placed in 6 well tissue culture plates (35 mm, 22.6 mm diameter, Costar, Cambridge, Mass.) containing DMEM with 20% FBS. The culture media was changed every other day. The migration of SMC out of the explant was observed under the microscope daily following explant. The total number of cells explanted was determined for each animal's explants on a daily basis. […]

[2] = tested on: aortic SMC of wild type C57BL/6 mice; experiment: as above; parameters: species or system mouse
Method: (§2) Aortic SMC explant migration: Wild type C57BL/6 mice were purchased from Jackson Laboratory (Bar Harbor, Me.). The p27 (+/−) and p27 (−/−) knockout mice were kindly provided by Dr. Andrew Koff of Memorial Sloan-Kettering Cancer Institute (Kiyokawa et al., 1996). […] The control group was treated with vehicle alone (0.2% sodium CMC, polysorbate 0.25%; Sigma, St. Louis, Mo.). At the conclusion of the treatment protocol, the mice were euthanized with 100 mg/kg of pentobarbital, the aortas excised and the adventitia and surrounding connective tissue were removed. The aortas were then opened by a longitudinal cut and the intima, as well as a thin portion of the subjacent media, were removed. The media were divided into 2 mm×2 mm pieces and placed in 6 well tissue culture plates (35 mm, 22.6 mm diameter, Costar, Cambridge, Mass.) containing DMEM with 20% FBS. The culture media was changed every other day. The migration of SMC out of the explant was observed under the microscope daily following explant. The total number of cells explanted was determined for each animal's explants on a daily basis. The results in FIG. 5 are presented as the mean percentage (±SD) of inhibition of migration (by rapamycin or taxol) as compared to control (untreated) for at least 4 animals from each group. The SMC phenotype was confirmed as previously described (Spector et al., 1997).

[3] = tested on: SMC obtained from wild type and p27 (−/−) animals; experiment: Cell viability (trypan blue exclusion) and morphology of SMC; type: cell-based, mouse
Method: as §1

[4] = tested on: aortic SMC of p27 (−/−) knockout mice; experiment: Aortic SMC explant migration after in vivo treatment; parameters: species or system mouse; conditions: 20 mg/kg/day for 7 days
Method: as §2

Compound: C=CC[C@@H]1/C=C(\C)C[C@H](C)C[C@H](OC)[C@H]2O[C@@](O)(C(=O)C(=O)N3CCCC[C@H]3C(=O)O[C@H](/C(C)=C/[C@@H]3CC[C@@H](O)[C@H](OC)C3)[C@H](C)[C@@H](O)CC1=O)[C@H](C)C[C@@H]2OC [FK506]
effect on murine SMC migration (FIG. 1A) (wild type murine SMC; wild type SMC, 48 hours): no effect | effect on murine SMC migration (FIG. 1B) (p27 (−/−) SMC; p27 (−/−) SMC, 48 hours): no effect

IC50 (wild type murine SMC; Mus musculus, wild type murine SMC, treatment for 48 hours, read-out: IC50, inhibition of bFGF-induced SMC migration): ~2 nM | IC50 (p27 (−/−) SMC; Mus musculus, p27 (−/−) cells, treatment for 48 hours, read-out: IC50, inhibition of bFGF-induced SMC migration): ~200 nM | increased IC50 in p27 (−/−) cells as compared to wild type SMC (p27 (−/−) SMC; p27 (−/−) vs wild type SMC): 100 fold
Compound: CO[C@H]1C[C@@H]2CC[C@@H](C)[C@@](O)(O2)C(=O)C(=O)N2CCCC[C@H]2C(=O)O[C@H]([C@H](C)C[C@@H]2CC[C@@H](O)[C@H](OC)C2)CC(=O)[C@H](C)/C=C(\C)[C@@H](O)[C@@H](OC)C(=O)[C@H](C)C[C@H](C)/C=C/C=C/C=C/1C [rapamycin]
effect on SMC migration of addition immediately prior to incubation (wild type murine SMC; added to upper or lower chamber immediately prior to incubation, genotype not stated): no effect | inhibition at 0.1 µM (p27 (−/−) SMC; Mus musculus, p27 (−/−) SMC, 100 nM, 48 hours): ~35% | inhibition of migration (p27 (−/−) SMC; p27 (−/−) SMC, 1 nM to 10 nM, 48 hours): no significant inhibition | inhibition of explant migration as compared to untreated animals [1]: ~85% | inhibition of explant migration as compared to untreated animals ([2]; wild type, 4 mg/kg/day for 5 days IP, p<0.05): ~85% | cell viability, treated vs untreated [3]: no differences

Compound: CC(=O)O[C@H]1C(=O)[C@@]2(C)[C@H]([C@H](OC(=O)c3ccccc3)[C@]3(O)C[C@H](OC(=O)[C@H](O)[C@@H](NC(=O)c4ccccc4)c4ccccc4)C(C)=C1C3(C)C)[C@]1(OC(C)=O)CO[C@@H]1C[C@@H]2O [taxol, paclitaxel]
difference in inhibition of explant migration between wild type and p27 (−/−) animals [4]: No differences | inhibition of explant migration (FIG. 3C) ([4]; p27 (−/−)): inhibited migration | inhibition of explant migration (FIG. 3C) ([2]; p27 (+/+), 20 mg/kg/day for 7 days): inhibited migration
